Test results: patent US20190194607A1, “HIGHLY FUNCTIONAL LIVER CELLS DERIVED FROM PLURIPOTENT STEM CELLS, METHOD FOR PRODUCING SAME, AND METHOD FOR TESTING METABOLISM/TOXICITY OF DRUG” (DNAVEC CORPORATION, priority 2011, published 2019)

How the values were obtained:
[1] = tested on: hepatocytes derived human iPS cells (#40); assay: Drug toxicity test: deviation enzymes in culture supernatant, human iPS cell-derived hepatocytes; assay type: cell-based; details: D-GalN 25 mM, 24 hours; FIG. 15(C)
Method: (§1) D-Galactosamine (D-GalN), which is known to have toxicity to hepatocytes, was added to pluripotent stem cell-derived hepatocytes at a final concentration of 25 mM, followed by culture at 37° C. After 24 hours, 1.5 mL of culture supernatant was collected and was centrifuged at 15000 rpm at 4° C. to completely remove cell components. The concentrations of liver-derived deviation enzymes contained in the supernatant, i.e., glutamic oxaloacetic transaminase (GOT), glutamic pyruvic transaminase (GPT), γ-glutamyl transpeptidase (y-GTP), leucine aminopeptidase (LAP), lactate dehydrogenase (LDH), and LDH isozyme (LDH 1 to 5), were measured (performed at BML Inc., Shibuya, Tokyo, Japan).

[2] = tested on: hepatocytes derived from human ES cells (KhES-1 cell line); assay: Drug toxicity test: liver deviation enzymes in culture supernatant, human ES cell-derived hepatocytes; assay type: cell-based; details: D-GalN 25 mM, 24 hours; hepatocytes 28th day from differentiation induction; FIG. 15(A)
Method: as §1

[3] = tested on: undifferentiated ES cells; assay: Drug toxicity test: deviation enzymes in culture supernatant, undifferentiated cells of FIG. 15(D); assay type: cell-based, human; details: D-GalN 25 mM, 24 hours
[4] = tested on: SeV-iPS-derived hepatocytes; assay: Drug toxicity test: deviation enzymes in culture supernatant, SeV-iPS-derived hepatocytes; assay type: cell-based, human; details: cultured in the presence of D-GalN; FIG. 15(E)
Method: as §1

[5] = tested on: undifferentiated SeV-iPS cells; assay: Drug toxicity test: deviation enzymes in culture supernatant, undifferentiated SeV-iPS cells; assay type: cell-based, human; details: cultured in the presence of D-GalN; FIG. 15(F)
HepG2 cells = assay: Drug toxicity test: deviation enzymes in culture supernatant, HepG2 cells; assay type: cell-based, human; details: cultured in the presence of D-GalN; FIG. 15(H)
Method: (§2) The HepaRG cells were cultured in accordance with the protocol of BIOPREDIC international. The HepG2 cells were purchased from Health Science Research Resources Bank, and the human primary cultured adult hepatocyte cell line was purchased from DS Pharma Biomedical Co., Ltd. (Osaka, Japan). They were cultured using a CS-C medium kit of Cell Systems Corporation (Kirkland, WA, USA). In the figure, 253G1 refers to a human iPS cell line established at Kyoto University, #40 refers to a human iPS cell line established at National Center for Child Health and Development, SeV refers to an iPS cell line induced using a SeV vector, ES-K1 refers to a human ES cell line established at Kyoto University, and CTL is an abbreviation of control.
as §1

HepaRG cells = assay: Drug toxicity test: deviation enzymes in culture supernatant, HepaRG cells; assay type: cell-based, human; details: cultured in the presence of D-GalN; FIG. 15(G)
Method: as §2, §1

[6] = tested on: undifferentiated ES cells; assay: Drug toxicity test: deviation enzymes in culture supernatant, undifferentiated human ES cells; assay type: cell-based; details: D-GalN 25 mM, 24 hours; FIG. 15(B)
[7] = tested on: hepatocytes derived from a #40 cell line; assay: PGE1 pretreatment before D-GalN administration: deviation enzymes in culture supernatant; assay type: cell-based, human; details: 4 mM PGE1 pretreatment, 37° C. for 4 hours, then D-GalN administration; FIG. 16
Method: as §1
That is, 4 mM PGE1 was added to hepatocytes derived from a #40 cell line in advance, and the hepatocytes were cultured at 37° C. for 4 hours and were subjected to a D-GalN administration experiment as in above. […] Similar tendencies were detected in the samples of hepatocyte differentiation induction from other human iPS cell lines and human ES cell lines.

## N[C@H]1C(O)O[C@H](CO)[C@H](O)[C@@H]1O (stereo partly drawn) [D-GalN, D-Galactosamine]
[1]
  LDH isozyme pattern: “liver damage-type” pattern in which type 4 and type 5 are dominant
  level of GOT in culture supernatant: increased
  level of GPT in culture supernatant: increased
  level of LAP in culture supernatant: increased
  level of LDH in culture supernatant: increased
  level of γ-GTP in culture supernatant: increased
[2]
  LDH isozyme pattern: “liver damage-type” pattern in which type 4 and type 5 are dominant
  level of GOT in culture supernatant: increased
  level of LAP in culture supernatant: increased
  level of LDH in culture supernatant: increased
  level of γ-GTP in culture supernatant: increased
[3]
  level of GOT in culture supernatant: did not increase
  level of GPT in culture supernatant: did not increase
  level of LAP in culture supernatant: did not increase
  level of LDH in culture supernatant: did not increase
  level of γ-GTP in culture supernatant: did not increase
[4]
  level of GOT in the culture supernatant: increased
[5]
  level of GOT in the culture supernatant: did not increase
HepG2 cells
  level of GOT in the culture supernatant: increased
  level of GPT in the culture supernatant: increased
  level of LAP in the culture supernatant: did not increase
  level of LDH-5 in the culture supernatant: increased
  level of γ-GTP in the culture supernatant: did not increase
HepaRG cells
  level of GOT in the culture supernatant: increased
  level of GPT in the culture supernatant: increased
  level of LAP in the culture supernatant: increased
  level of LDH-5 in the culture supernatant: increased
  level of γ-GTP in the culture supernatant: did not increase
[6]
  levels of all of the deviation enzymes in culture supernatant: did not increase

## CCCCC[C@H](O)/C=C/[C@H]1[C@H](O)CC(=O)[C@@H]1CCCCCCC(=O)O [PGE1, prostaglandin E1]
[7]
  levels of all the deviation enzymes from the liver detected in the culture supernatant after D-GalN: significantly suppressed
